Patent US20180237441A1, “Chemical Compounds” (GlaxoSmithKline Intellectual Property (No.2) Limited, priority 2015, published 2018)

Target: T1, PERK (Homo sapiens, UniProt Q9NZJ5)
T1 sequence (Q9NZJ5 30-1116): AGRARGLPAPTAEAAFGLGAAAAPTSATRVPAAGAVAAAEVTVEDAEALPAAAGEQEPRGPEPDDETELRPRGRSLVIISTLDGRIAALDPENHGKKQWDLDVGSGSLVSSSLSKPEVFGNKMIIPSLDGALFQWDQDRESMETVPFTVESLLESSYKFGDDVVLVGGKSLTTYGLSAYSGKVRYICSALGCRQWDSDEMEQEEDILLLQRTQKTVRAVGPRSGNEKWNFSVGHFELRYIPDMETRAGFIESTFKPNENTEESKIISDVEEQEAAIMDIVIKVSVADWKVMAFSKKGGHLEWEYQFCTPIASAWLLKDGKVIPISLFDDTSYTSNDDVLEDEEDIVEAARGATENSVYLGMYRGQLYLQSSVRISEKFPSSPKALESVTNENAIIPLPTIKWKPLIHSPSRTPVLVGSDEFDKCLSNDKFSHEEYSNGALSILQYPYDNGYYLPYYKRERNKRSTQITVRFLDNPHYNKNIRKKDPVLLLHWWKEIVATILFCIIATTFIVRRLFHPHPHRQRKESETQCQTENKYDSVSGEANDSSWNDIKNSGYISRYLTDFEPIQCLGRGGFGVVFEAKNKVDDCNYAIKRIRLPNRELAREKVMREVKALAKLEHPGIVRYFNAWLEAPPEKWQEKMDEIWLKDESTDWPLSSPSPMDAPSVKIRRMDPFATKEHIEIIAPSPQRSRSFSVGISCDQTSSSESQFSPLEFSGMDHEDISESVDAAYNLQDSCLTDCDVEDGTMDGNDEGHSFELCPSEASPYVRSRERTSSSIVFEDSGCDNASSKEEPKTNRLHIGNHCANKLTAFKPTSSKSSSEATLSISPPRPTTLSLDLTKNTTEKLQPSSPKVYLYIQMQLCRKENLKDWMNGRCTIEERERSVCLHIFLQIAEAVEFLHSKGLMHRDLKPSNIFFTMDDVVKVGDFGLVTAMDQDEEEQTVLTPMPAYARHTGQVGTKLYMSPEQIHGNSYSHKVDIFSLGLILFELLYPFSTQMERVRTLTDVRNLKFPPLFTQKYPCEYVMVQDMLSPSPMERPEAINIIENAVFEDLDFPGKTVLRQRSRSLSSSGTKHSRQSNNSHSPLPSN
Assay: PERK enzyme assay (HTRF)
Format: biochemical
Details: 500 μM ATP; at least one experimental run; read-out: PERK Enzyme (500 μM ATP) IC50
Summary of the method: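 GST-PERK (0.75 nM final) pre-incubated 30–60 min with compound (≤1% DMSO) in HEPES pH 7.5/CHAPS/MgCl2/DTT, then 500 μM ATP and 40 nM biotin-eIF2α added for 60 min. EDTA quench; HTRF detection of phospho-eIF2α (Eu anti-rabbit/streptavidin-APC) read after 2 h; IC50 from concentration series.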

IC50 | SMILES
988 nM | CN1C(=O)N(c2ccc(-c3cn(C4CC4)c4ncnc(N)c34)c(F)c2)CC1c1ccc(F)cc1F (single isomer, unassigned) [Example 154, 1-(4-(4-amino-7-cyclopropyl-7H-pyrrolo[2,3-d]pyrimidin-5-yl)-3-fluorophenyl)-4-(2,4-difluorophenyl)-3-methylimidazolidin-2-one]
4 nM | CN1C(=O)N(c2ccc(-c3cn(C4CC4)c4ncnc(N)c34)c(F)c2)CC1c1ccccc1 (single isomer, unassigned) [Example 165, 1-(4-(4-amino-7-cyclopropyl-7H-pyrrolo[2,3-d]pyrimidin-5-yl)-3-fluorophenyl)-3-methyl-4-phenylimidazolidin-2-one]

Same assay, conditions: PERK Enzyme (500 μM ATP) IC50; at least one experimental run; read-out: PERK Activity

SMILES | IC50
CN1C(=O)N(c2ccc(-c3cn(C)c4ncnc(N)c34)c(F)c2)CC1c1cc(F)cc(F)c1F (single isomer, unassigned) [Example 141, 1-(4-(4-amino-7-methyl-7H-pyrrolo[2,3-d]pyrimidin-5-yl)-3-fluorophenyl)-3-methyl-4-(2,3,5-trifluorophenyl)imidazolidin-2-one] | 100 to 1000 nM
CN1C(=O)N(c2ccc(-c3cn(C4CC4)c4ncnc(N)c34)c(F)c2)CC1c1cc(F)cc(F)c1F (single isomer, unassigned) [Example 143, 1-(4-(4-amino-7-cyclopropyl-7H-pyrrolo[2,3-d]pyrimidin-5-yl)-3-fluorophenyl)-3-methyl-4-(2,3,5-trifluorophenyl)imidazolidin-2-one] | 100 to 1000 nM
CN1C(=O)N(c2ccc(-c3cn(C)c4ncnc(N)c34)c(F)c2)CC1c1cc(F)ccc1F (single isomer, unassigned) [Example 151, 1-(4-(4-amino-7-methyl-7H-pyrrolo[2,3-d]pyrimidin-5-yl)-3-fluorophenyl)-4-(2,5-difluorophenyl)-3-methylimidazolidin-2-one] | 100 to 1000 nM
CN1C(=O)N(c2ccc(-c3cn(C4CC4)c4ncnc(N)c34)c(F)c2)CC1c1cccc(Cl)c1 (single isomer, unassigned) [Example 153, 1-(4-(4-amino-7-cyclopropyl-7H-pyrrolo[2,3-d]pyrimidin-5-yl)-3-fluorophenyl)-4-(3-chlorophenyl)-3-methylimidazolidin-2-one] | 100 to 1000 nM
CN1C(=O)N(c2ccc(-c3cn(C4CC4)c4ncnc(N)c34)c(F)c2)CC1c1ccc(F)cc1F (single isomer, unassigned) [Example 154, 1-(4-(4-amino-7-cyclopropyl-7H-pyrrolo[2,3-d]pyrimidin-5-yl)-3-fluorophenyl)-4-(2,4-difluorophenyl)-3-methylimidazolidin-2-one] | 100 to 1000 nM
CN1C(=O)N(c2ccc(-c3cn(C)c4ncnc(N)c34)c(F)c2)CC1c1cc(F)c(F)cc1F (single isomer, unassigned) [Example 159, 1-(4-(4-amino-7-methyl-7H-pyrrolo[2,3-d]pyrimidin-5-yl)-3-fluorophenyl)-3-methyl-4-(2,4,5-trifluorophenyl)imidazolidin-2-one] | 100 to 1000 nM
CN1C(=O)N(c2ccc(-c3cn(C4CC4)c4ncnc(N)c34)c(F)c2)CC1c1ccc(F)cc1 (single isomer, unassigned) [Example 164, 1-(4-(4-amino-7-cyclopropyl-7H-pyrrolo[2,3-d]pyrimidin-5-yl)-3-fluorophenyl)-4-(4-fluorophenyl)-3-methylimidazolidin-2-one] | 100 to 1000 nM
CN1C(=O)N(c2ccc(-c3cn(C4CC4)c4ncnc(N)c34)c(F)c2)CC1c1ccc(Cl)cc1 (single isomer, unassigned) [Example 168, 1-(4-(4-amino-7-cyclopropyl-7H-pyrrolo[2,3-d]pyrimidin-5-yl)-3-fluorophenyl)-4-(4-chlorophenyl)-3-methylimidazolidin-2-one] | < 100 nM
CN1C(=O)N(c2ccc(-c3cn(C)c4ncnc(N)c34)c(F)c2)CC1c1ccc2c(c1)CCO2 (single isomer, unassigned) [Example 169, 1-(4-(4-amino-7-methyl-7H-pyrrolo[2,3-d]pyrimidin-5-yl)-3-fluorophenyl)-4-(2,3-dihydrobenzofuran-5-yl)-3-methylimidazolidin-2-one] | < 100 nM

The next lines start with the values.

IC50 | SMILES
< 100 nM | CN1C(=O)N(c2ccc(-c3cn(C)c4ncnc(N)c34)c(F)c2)CC1c1cc(F)cc(F)c1F (single isomer, unassigned) [Example 140, 1-(4-(4-amino-7-methyl-7H-pyrrolo[2,3-d]pyrimidin-5-yl)-3-fluorophenyl)-3-methyl-4-(2,3,5-trifluorophenyl)imidazolidin-2-one]
< 100 nM | CN1C(=O)N(c2ccc(-c3cn(C4CC4)c4ncnc(N)c34)c(F)c2)CC1c1cc(F)cc(F)c1F (single isomer, unassigned) [Example 142, 1-(4-(4-amino-7-cyclopropyl-7H-pyrrolo[2,3-d]pyrimidin-5-yl)-3-fluorophenyl)-3-methyl-4-(2,3,5-trifluorophenyl)imidazolidin-2-one]
< 100 nM | CN1C(=O)N(c2ccc(-c3cn(C4CC4)c4ncnc(N)c34)c(F)c2)CC1c1cc(F)ccc1F (single isomer, unassigned) [Example 145, 1-(4-(4-amino-7-cyclopropyl-7H-pyrrolo[2,3-d]pyrimidin-5-yl)-3-fluorophenyl)-4-(2,5-difluorophenyl)-3-methylimidazolidin-2-one]
< 100 nM | CN1C(=O)N(c2ccc(-c3cn(C4CC4)c4ncnc(N)c34)c(F)c2)CC1c1cc(F)ccc1F (single isomer, unassigned) [Example 146, 1-(4-(4-amino-7-cyclopropyl-7H-pyrrolo[2,3-d]pyrimidin-5-yl)-3-fluorophenyl)-4-(2,5-difluorophenyl)-3-methylimidazolidin-2-one]
< 100 nM | CN1C(=O)N(c2ccc(-c3cn(C)c4ncnc(N)c34)c(F)c2)CC1c1cc(F)ccc1F (single isomer, unassigned) [Example 150, 1-(4-(4-amino-7-methyl-7H-pyrrolo[2,3-d]pyrimidin-5-yl)-3-fluorophenyl)-4-(2,5-difluorophenyl)-3-methylimidazolidin-2-one]
< 100 nM | CN1C(=O)N(c2ccc(-c3cn(C4CC4)c4ncnc(N)c34)c(F)c2)CC1c1cccc(Cl)c1 (single isomer, unassigned) [Example 152, 1-(4-(4-amino-7-cyclopropyl-7H-pyrrolo[2,3-d]pyrimidin-5-yl)-3-fluorophenyl)-4-(3-chlorophenyl)-3-methylimidazolidin-2-one]
< 100 nM | CN1C(=O)N(c2ccc(-c3cn(C4CC4)c4ncnc(N)c34)c(F)c2)CC1c1ccc(F)cc1F (single isomer, unassigned) [Example 155, 1-(4-(4-amino-7-cyclopropyl-7H-pyrrolo[2,3-d]pyrimidin-5-yl)-3-fluorophenyl)-4-(2,4-difluorophenyl)-3-methylimidazolidin-2-one]
< 100 nM | CN1C(=O)N(c2ccc(-c3cn(C)c4ncnc(N)c34)c(F)c2)CC1c1cc(F)c(F)cc1F (single isomer, unassigned) [Example 158, 1-(4-(4-amino-7-methyl-7H-pyrrolo[2,3-d]pyrimidin-5-yl)-3-fluorophenyl)-3-methyl-4-(2,4,5-trifluorophenyl)imidazolidin-2-one]
< 100 nM | CN1C(=O)N(c2ccc(-c3cn(C4CC4)c4ncnc(N)c34)c(F)c2)CC1c1cc(F)c(F)cc1F (single isomer, unassigned) [Example 160, 1-(4-(4-amino-7-cyclopropyl-7H-pyrrolo[2,3-d]pyrimidin-5-yl)-3-fluorophenyl)-3-methyl-4-(2,4,5-trifluorophenyl)imidazolidin-2-one]
< 100 nM | CN1C(=O)N(c2ccc(-c3cn(C4CC4)c4ncnc(N)c34)c(F)c2)CC1c1cc(F)c(F)cc1F (single isomer, unassigned) [Example 161, 1-(4-(4-amino-7-cyclopropyl-7H-pyrrolo[2,3-d]pyrimidin-5-yl)-3-fluorophenyl)-3-methyl-4-(2,4,5-trifluorophenyl)imidazolidin-2-one]
< 100 nM | CN1C(=O)N(c2ccc(-c3cn(C4CC4)c4ncnc(N)c34)c(F)c2)CC1c1ccc(F)cc1 (single isomer, unassigned) [Example 163, 1-(4-(4-amino-7-cyclopropyl-7H-pyrrolo[2,3-d]pyrimidin-5-yl)-3-fluorophenyl)-4-(4-fluorophenyl)-3-methylimidazolidin-2-one]
< 100 nM | CN1C(=O)N(c2ccc(-c3cn(C4CC4)c4ncnc(N)c34)c(F)c2)CC1c1ccccc1 (single isomer, unassigned) [Example 165, 1-(4-(4-amino-7-cyclopropyl-7H-pyrrolo[2,3-d]pyrimidin-5-yl)-3-fluorophenyl)-3-methyl-4-phenylimidazolidin-2-one]
< 100 nM | CN1C(=O)N(c2ccc(-c3cn(C4CC4)c4ncnc(N)c34)c(F)c2)CC1c1ccccc1 (single isomer, unassigned) [Example 166, 1-(4-(4-amino-7-cyclopropyl-7H-pyrrolo[2,3-d]pyrimidin-5-yl)-3-fluorophenyl)-3-methyl-4-phenylimidazolidin-2-one]
